Assay results: ChEMBL document CHEMBL1154587, “Discovery of novel sphingosine kinase 1 inhibitors” (Bioorg Med Chem Lett, 2009)
Activity calls are given as the source filed them. The rule behind the calls is not given here.

Legend:
[1] = molecular target: Sphingosine kinase 1 (Homo sapiens, UniProt Q9NYA1); experiment: Inhibition of human sphingosine kinase 1 by off chip mobility shift assay
[2] = molecular target: T1, Sphingosine kinase 2 (Homo sapiens) (UniProt Q9NRA0); experiment: Inhibition of sphingosine kinase 2 at 10 uM
T1 sequence (whole entry): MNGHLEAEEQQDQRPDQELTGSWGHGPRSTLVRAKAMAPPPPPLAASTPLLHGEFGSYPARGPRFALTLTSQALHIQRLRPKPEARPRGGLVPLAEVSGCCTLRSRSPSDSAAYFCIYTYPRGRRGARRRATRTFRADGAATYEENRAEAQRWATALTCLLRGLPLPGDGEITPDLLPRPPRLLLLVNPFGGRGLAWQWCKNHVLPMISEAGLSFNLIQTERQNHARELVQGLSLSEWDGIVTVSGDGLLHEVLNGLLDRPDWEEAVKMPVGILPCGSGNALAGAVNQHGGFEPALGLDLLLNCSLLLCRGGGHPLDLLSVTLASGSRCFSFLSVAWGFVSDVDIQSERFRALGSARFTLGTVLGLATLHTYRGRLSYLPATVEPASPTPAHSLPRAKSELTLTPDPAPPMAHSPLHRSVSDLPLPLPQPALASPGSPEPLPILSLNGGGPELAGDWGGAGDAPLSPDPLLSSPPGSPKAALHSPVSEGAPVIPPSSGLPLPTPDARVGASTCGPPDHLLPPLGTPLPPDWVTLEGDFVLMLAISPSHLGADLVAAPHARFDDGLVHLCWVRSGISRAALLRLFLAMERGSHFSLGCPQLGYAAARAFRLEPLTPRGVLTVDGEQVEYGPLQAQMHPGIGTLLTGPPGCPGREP

Sequence of Sphingosine kinase 1 (Q9NYA1 whole entry): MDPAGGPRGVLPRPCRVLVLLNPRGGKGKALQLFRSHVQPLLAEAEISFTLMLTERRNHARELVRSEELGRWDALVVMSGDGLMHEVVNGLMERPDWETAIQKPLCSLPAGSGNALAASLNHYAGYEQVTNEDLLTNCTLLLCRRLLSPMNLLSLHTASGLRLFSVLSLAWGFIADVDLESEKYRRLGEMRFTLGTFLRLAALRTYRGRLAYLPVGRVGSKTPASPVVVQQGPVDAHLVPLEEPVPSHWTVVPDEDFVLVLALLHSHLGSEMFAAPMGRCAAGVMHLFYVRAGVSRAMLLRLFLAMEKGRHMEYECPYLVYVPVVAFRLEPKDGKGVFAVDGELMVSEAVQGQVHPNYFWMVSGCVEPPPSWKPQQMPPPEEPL

Row | IC50 [1] [µM] | inhibition [2] | SMILES
1 | 6.2 | inactive | CCCCCCCCc1ccc(CCNC(=O)[C@H]2NCC[C@@H]2O)cc1
2 |  | inactive | CCCCCCCCc1ccc(NC(=O)[C@H]2NCC[C@H]2O)cc1
3 | > 10 | inactive | CCCCCCCCc1ccc(NC(=O)C(C)(N)CO)cc1 (racemic)
4 | 8.3 | inactive | CCCCCCCCc1ccc(NC(=O)[C@H]2NC[C@@H](O)[C@@H]2O)cc1
5 | 0.43 | inactive | CCCCCCCCc1ccc(CNC(=O)[C@H]2NCC[C@@H]2O)cc1
6 |  | inactive | CCCCCCCCc1ccc(NC(=O)[C@@H](N)CO)cc1
7 | > 10 | inactive | CCCCCCCCc1ccc(NCC(N)CCO)cc1 (configuration not stated)
8 |  | inactive | CCCCCCCCc1ccc(NC(=O)[C@H](CO)NC)cc1
9 |  | inactive | CCCCCCCCc1ccc(NC(=O)C(N)CCO)cc1 (racemic)
10 |  | inactive | CCCCCCCCc1ccc(NC(=O)[C@H](N)CO)cc1
11 |  | inactive | CCCCCCCCc1ccc(NC(=O)[C@H]2NCC[C@@H]2O)cc1
12 |  | inactive | CCCCCCCCc1ccc(NC[C@H]2NCC[C@@H]2O)cc1
13 |  | inactive | CCCCCCCCc1ccc(NC[C@@H](N)CO)cc1

Further lines, the molecule ahead of its results:

Row | SMILES | IC50 [1] [µM] | inhibition [2]
14 | CCCCCCCCc1ccc(NC(=O)[C@@H](N)COC)cc1 | > 10 | inactive
15 | CCCCCCCCc1ccc(CNC(=O)C(N)CO)cc1 (racemic) | > 10 | inactive
16 | CCCCCCCCc1ccc(NC(=O)[C@@H](N)[C@@H](C)O)cc1 | 0.65 | inactive
17 | CCCCCCCCc1ccc(NC(=O)[C@H](N)[C@@H](C)O)cc1 |  | inactive
18 | CCCCCCCCc1ccc(NC(=O)[C@@H](N)CCCCO)cc1 |  | inactive
19 | CCCCCCCCc1ccc(NC(=O)[C@H](N)CCO)cc1 |  | inactive
20 | CCCCCCCCc1ccc(NC(=O)[C@@H](N)CCO)cc1 |  | inactive
21 | CCCCCCCCc1ccc(NC(=O)C(N)C(C)(C)O)cc1 (racemic) | 2.1 | inactive
22 | CCCCCCCCc1ccc(NC(=O)C(N)CCCO)cc1 (racemic) | > 10 | inactive
23 | CCCCCCCCc1ccc(NC(=O)[C@@H](N)[C@H](C)O)cc1 |  | inactive
24 | CCCCCCCCc1ccc(NC(=O)[C@H](N)[C@H](C)O)cc1 |  | inactive
25 | CCCCCCCCc1ccc(NC(=O)[C@@H](N)[C@@H](O)CC)cc1 (racemic) |  | inactive
26 | CCCCCCCCCCCCC/C=C/[C@@H](O)[C@H](CO)N(C)C |  | inactive
27 | CCCCCCCCc1ccc(CNC(=O)C(N)CCO)cc1 (racemic) |  | inactive
